Where two headings read alike, the source gives them in different places. Starred links: 1 amine or outer side, 2 acyl side, 3 side chain; linkers in the order of their positions; H or OH if unused. Positions of bridges follow the written chain, without caps; N, C: chain ends. Non-standard residues stand in square brackets, D forms with d. Residues, ends and D or L forms follow the SMILES beside them. *: point of attachment. Phe(3-(CH2)4CO) = O=C([C@H](Cc1cccc(CCCCC(=O)[*:3])c1)N[*:1])[*:2]; NMePhe(3-Cl) = CN[C@@H](Cc1cccc(Cl)c1)C(=O)O; hhPhe = N[C@@H](CCCc1ccccc1)C(=O)O; NMeF = CN[C@@H](Cc1ccccc1)C(=O)O; NMeGABA = CN(CCCC(=O)[*:2])[*:1]; NMeI = CC[C@H](C)[C@H](NC)C(=O)O; NMeβAla = CN(CCC(=O)[*:2])[*:1]; Aoc(2) = CCCCCC[C@H](N)C(=O)O; NMeL = CN[C@@H](CC(C)C)C(=O)O; NMeV = CN[C@H](C(=O)O)C(C)C; NMeS = CN[C@@H](CO)C(=O)O; NMeA = CN[C@@H](C)C(=O)O; Piperidide = C1CCN(*)CC1; dNMeA = CN[C@H](C)C(=O)O; β3hA = C[C@H](N)CC(=O)O; Abu = CC[C@H](N)C(=O)O; Sar = CNCC(=O)O; tBu = CC(C)(C)*
Key:
[1] = Metabolic stability in human hepatic microsome; assay type: in vitro ADME; conditions: microsomes
[2] = PAMPA (parallel artificial membrane permeability assay); assay type: in vitro ADME; conditions: PAMPA
In short: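 Artificial membrane was 10% (w/v) egg lecithin plus 0.5% (w/v) cholesterol in dodecane on a PVDF filter. A 10 mM DMSO stock was added at 0.5% (v/v) to donor buffer (50 mM MOPSO, pH 6.5, 5.0% glycocholic acid). After 18 h at 37 °C, LC/MS or LC/UV gave donor and acceptor levels for Pe.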

[3] = pH 7.4, human hepatic microsome, NADPH(+), read-out: CL NADPH(+)
[4] = membrane permeation rate (Pe), 50 mM MOPSO buffer pH 6.5 with 5.0% glycocholic acid, 37° C., 18 hours, read-out: iPAMPA Pe

| Compound | microsomal CLint at 1 uM [1, 3] [µL/min/mg] | Papp at 18 hours, 50 µM [2, 4] [×10⁻⁶ cm/s] | microsomal CLint at 1 uM ([1]; human, pH 7.4, CL NADPH(+)) [µL/min/mg] | Papp at 18 hours, 50 µM ([2]; pH 6.5) [×10⁻⁶ cm/s] |
| --- | --- | --- | --- | --- |
| CC(C)C[C@H]1C(=O)N(C)[C@@H](C)C(=O)N[C@@H]([C@@H](C)O)C(=O)N(C)[C@@H](C)C(=O)N[C@H](C(=O)N(C)[C@@H](Cc2ccccc2)C(=O)N(C)[C@@H](Cc2ccccc2)C(=O)N[C@@H](C)C(=O)N2CCCCC2)CC(=O)N(C)CCC(=O)N(C)[C@@H](Cc2ccccc2)C(=O)N(C)[C@@H](CC(C)C)C(=O)N(C)[C@@H](C)C(=O)N[C@@H](C(C)C)C(=O)N1C [DP-500] ([NMeβAla][NMeF][NMeL][NMeA]V[NMeL][NMeA]T[NMeA]D[NMeF][NMeF]A-Piperidide; lactam N-10) | 28 | 27 |  |  |
| CC[C@H](C)[C@@H]1NC(=O)[C@H](CC(C)C)N(C)C(=O)[C@H](C)N(C)C(=O)[C@@H](C)NC(=O)C[C@@H](C(=O)N2CCCCC2)NC(=O)[C@H](CC(C)C)N(C)C(=O)[C@H](C)N(C)C(=O)[C@H]([C@@H](C)O)NC(=O)[C@H](Cc2ccccc2)N(C)C(=O)[C@H](Cc2ccccc2)N(C)C1=O [DP-136] ([dA][NMeA][NMeL]I[NMeF][NMeF]T[NMeA][NMeL]D-Piperidide; lactam N-10) | 147 | 35 |  |  |
| CCCCCC[C@@H]1NC(=O)[C@H](CO)N(C)C(=O)[C@H](CC(C)C)N(C)C(=O)[C@H](CC(C)C)N(C)C(=O)[C@H](CC(C)C)N(C)C(=O)[C@@H](C)NC(=O)[C@H](CC)NC(=O)[C@H](CC(C)C)N(C)C(=O)C[C@H](C)NC(=O)[C@H](CC(C)C)N(C)C(=O)CN(C)C1=O [DP-645] (cyclo([Abu][dA][NMeL][NMeL][NMeL][NMeS][Aoc(2)][Sar][NMeL][β3hA][NMeL])) | 74 | 49 |  |  |
| CC(C)C[C@H]1C(=O)N[C@H](C(=O)N(C)[C@@H](Cc2ccccc2)C(=O)N[C@@H](C)C(=O)N2CCCCC2)CC(=O)N(C)CCC(=O)N(C)[C@@H](C)C(=O)N[C@@H](C(C)C)C(=O)N(C)[C@@H](C(C)C)C(=O)N(C)[C@@H](Cc2ccccc2)C(=O)N(C)CC(=O)N[C@@H]([C@@H](C)O)C(=O)N(C)[C@@H](C)C(=O)N1C [DP-449] ([NMeβAla][NMeA]V[NMeV][NMeF][Sar]T[NMeA][NMeL]D[NMeF]A-Piperidide; lactam N-10) | 6 | 6 |  |  |
| CC[C@H](C)[C@@H]1NC(=O)[C@@H]2CCCN2C(=O)[C@H]([C@@H](C)O)NC(=O)[C@H](Cc2ccccc2)NC(=O)CNC(=O)[C@H](Cc2ccccc2)N(C)C(=O)[C@H](CC(C)C)NC(=O)[C@H](CC(C)C)N(C)C(=O)[C@H](CC(C)C)N(C)C(=O)CCCN(C)C(=O)C[C@@H](C(=O)N2CCCCC2)NC1=O [DP-113] ([NMeGABA][NMeL][NMeL]L[NMeF]GFTPID-Piperidide; lactam N-11) |  |  | 84 | 28 |
| CC[C@H](C)[C@@H]1NC(=O)CCCCc2cccc(c2)C[C@@H](C(=O)N2CCCCC2)NC(=O)[C@H](C)N(C)C(=O)[C@H](CC(C)C)N(C)C(=O)CN(C)C(=O)[C@H]([C@@H](C)O)NC(=O)[C@H](Cc2ccccc2)N(C)C(=O)[C@H](CC(C)C)N(C)C(=O)[C@H](C)NC(=O)[C@H](C(C)C)N(C)C(=O)[C@H](Cc2ccccc2)N(C)C1=O [DP-876] (I[NMeF][NMeV]A[NMeL][NMeF]T[Sar][NMeL][NMeA][Phe(3-(CH2)4CO)]-Piperidide; lactam N-11) | 103 | 55 |  |  |
| CC(C)C[C@H]1C(=O)N(C)[C@@H](C)C(=O)N[C@@H](C)C(=O)N(C)[C@@H](C)C(=O)N(C)[C@@H](Cc2ccccc2)C(=O)N(C)[C@@H](C)C(=O)N[C@@H]([C@@H](C)O)C(=O)N(C)[C@@H](C)C(=O)N(C)[C@@H](C)C(=O)N[C@H](C(=O)N(C)[C@@H](Cc2ccccc2)C(=O)N[C@@H](C)C(=O)N2CCCCC2)CC(=O)N(C)[C@@H](C)C(=O)N1C [DP-368] ([NMeA][NMeL][NMeA]A[NMeA][NMeF][NMeA]T[NMeA][NMeA]D[NMeF]A-Piperidide; lactam N-11) | 6 | 1.6 |  |  |
| CC(C)C[C@H]1C(=O)N[C@@H](C)C(=O)N(C)[C@@H](Cc2ccccc2)C(=O)N2CCC[C@H]2C(=O)N(C)[C@@H](CC(C)C)C(=O)N(C)[C@@H](C(C)C)C(=O)N[C@H](C(=O)N2CCCCC2)CC(=O)N(C)CCCC(=O)N[C@@H]([C@@H](C)O)C(=O)N(C)CC(=O)N(C)[C@@H](Cc2ccccc2)C(=O)N1C [DP-276] ([NMeGABA]T[Sar][NMeF][NMeL]A[NMeF]P[NMeL][NMeV]D-Piperidide; lactam N-11) |  |  | 68 | 19 |
| CC(C)[C@@H]1NC(=O)[C@H](Cc2ccccc2)N(C)C(=O)[C@H](C)N(C)C(=O)[C@H]([C@@H](C)O)NC(=O)[C@H](C)N(C)C(=O)CNC(=O)[C@H](Cc2ccccc2)NC(=O)[C@@H](C)N(C)C(=O)C[C@@H](C(=O)N(C)[C@@H](Cc2ccccc2)C(=O)N(C)[C@@H](Cc2ccccc2)C(=O)N[C@@H](C)C(=O)N2CCCCC2)NC(=O)[C@H](C(C)C)N(C)C1=O [DP-504] ([dNMeA]FG[NMeA]T[NMeA][NMeF]V[NMeV]D[NMeF][NMeF]A-Piperidide; lactam N-10) | 216 | 31 |  |  |
| CC[C@H](C)[C@@H]1NC(=O)[C@H](CC(C)C)NC(=O)[C@H](Cc2ccccc2)NC(=O)[C@H](CC(C)C)NC(=O)CN(C)C(=O)[C@H](Cc2ccccc2)NC(=O)[C@H](C)NC(=O)C[C@@H](C(=O)N2CCCCC2)NC(=O)[C@H](Cc2ccccc2)NC(=O)[C@H]([C@@H](C)O)NC1=O [DP-330] (AF[Sar]LFLITFD-Piperidide; lactam N-10) | 61 | 9.9 |  |  |
| CC(C)C[C@H]1C(=O)N(C)[C@@H](C(C)C)C(=O)N(C)[C@@H](C)C(=O)N[C@H](C(=O)N2CCCCC2)CC(=O)N(C)CCC(=O)N[C@@H]([C@@H](C)O)C(=O)N[C@@H](C)C(=O)N(C)[C@@H](C)C(=O)N(C)[C@@H](Cc2ccccc2)C(=O)N(C)[C@@H](CC(C)C)C(=O)N[C@@H](Cc2ccccc2)C(=O)N1C [DP-473] ([NMeβAla]TA[NMeA][NMeF][NMeL]F[NMeL][NMeV][NMeA]D-Piperidide; lactam N-11) | 82 | 14 |  |  |
| CC[C@H](C)[C@H]1C(=O)N[C@@H](Cc2ccccc2)C(=O)N(C)[C@@H](Cc2ccccc2)C(=O)N[C@@H]([C@@H](C)O)C(=O)N2CCC[C@H]2C(=O)N[C@@H](CC(C)C)C(=O)N[C@H](C(=O)N2CCCCC2)Cc2cccc(c2)CCCCC(=O)N[C@@H](CC(C)C)C(=O)N(C)[C@@H](CC(C)C)C(=O)N[C@@H](C)C(=O)N1C [DP-897] (L[NMeL]A[NMeI]F[NMeF]TPL[Phe(3-(CH2)4CO)]-Piperidide; lactam N-10) | 56 | 2.4 |  |  |
| CC(C)C[C@@H]1NC(=O)[C@H](C)N(C)C(=O)CNC(=O)[C@H](C(C)C)N(C)C(=O)[C@H](Cc2ccccc2)NC(=O)[C@H]([C@@H](C)O)NC(=O)[C@H](CC(C)C)N(C)C(=O)CN(C)C(=O)C[C@@H](C(=O)N(C)[C@@H](Cc2ccccc2)C(=O)N[C@@H](C)C(=O)N2CCCCC2)NC(=O)[C@H](C)N(C)C(=O)[C@H](CC(C)C)N(C)C1=O [DP-285] ([Sar][NMeL]TF[NMeV]G[NMeA]L[NMeL][NMeA]D[NMeF]A-Piperidide; lactam N-11) |  |  | 69 | 16 |
| CC[C@H](C)[C@@H]1NC(=O)[C@H](CC(C)C)N(C)C(=O)CN(C)C(=O)[C@H]([C@@H](C)O)NC(=O)[C@H](C)N(C)C(=O)[C@H](Cc2ccccc2)NC(=O)[C@H](CC(C)C)N(C)C(=O)[C@H](C)N(C)C(=O)C[C@@H](C(=O)N(C)[C@@H](Cc2ccccc2)C(=O)N(C)[C@@H](Cc2ccccc2)C(=O)N[C@@H](C)C(=O)N2CCCCC2)NC(=O)[C@H](C(C)C)N(C)C1=O [DP-459] ([NMeA][NMeL]F[NMeA]T[Sar][NMeL]I[NMeV]D[NMeF][NMeF]A-Piperidide; lactam N-10) | 143 | 19 |  |  |
| CC[C@H](C)[C@H](NC(=O)[C@H](Cc1cccc(Cl)c1)N(C)C(=O)[C@H](CC(C)C)NC(=O)[C@H](C)N(C)C(=O)[C@H](CC(C)C)N(C)C(=O)[C@@H]1CC(=O)N[C@@H](Cc2ccccc2)C(=O)N(C)[C@@H](Cc2ccccc2)C(=O)N2CCC[C@H]2C(=O)N[C@@H](CC(C)C)C(=O)N(C)[C@@H](Cc2cccc(Cl)c2)C(=O)N[C@@H]([C@@H](C)O)C(=O)N[C@@H](CC(C)C)C(=O)N1)C(=O)N1CCCCC1 [DP-923] (F[NMeF]PL[NMePhe(3-Cl)]TLD[NMeL][NMeA]L[NMePhe(3-Cl)]I-Piperidide; lactam N-8) |  |  | 8 | 0.1 |
| CC[C@H](C)[C@@H]1NC(=O)CCCN(C)C(=O)C[C@@H](C(=O)N2CCCCC2)NC(=O)[C@H](Cc2ccccc2)N(C)C(=O)[C@H](CC(C)C)N(C)C(=O)CN(C)C(=O)[C@H]([C@@H](C)O)NC(=O)[C@H](C)N(C)C(=O)[C@H](C(C)C)N(C)C(=O)[C@H](C)NC(=O)[C@H](CC(C)C)N(C)C(=O)[C@H](Cc2ccccc2)N(C)C1=O [DP-468] ([NMeGABA]I[NMeF][NMeL]A[NMeV][NMeA]T[Sar][NMeL][NMeF]D-Piperidide; lactam N-12) | 53 | 27 |  |  |
| CC(C)C[C@H]1C(=O)N[C@H](C(=O)N2CCCCC2)CC(=O)N(C)CCCC(=O)N(C)[C@@H](Cc2ccccc2)C(=O)N[C@@H]([C@@H](C)O)C(=O)N(C)CC(=O)N[C@@H](COC(C)(C)C)C(=O)N1C [DP-535] ([NMeGABA][NMeF]T[Sar]S(tBu)[NMeL]D-Piperidide; lactam N-7) | 129 | 21 |  |  |
| CC(C)C[C@@H]1NC(=O)[C@H](C(C)C)N(C)C(=O)[C@H](CCCc2ccccc2)NC(=O)CN(C)C(=O)[C@H]([C@@H](C)O)NC(=O)[C@H](C)N(C)C(=O)[C@H](CC(C)C)N(C)C(=O)[C@@H](C(C)C)NC(=O)C[C@@H](C(=O)N2CCCCC2)NC(=O)[C@H](C)NC(=O)[C@H](CC(C)C)N(C)C1=O [DP-737] ([dV][NMeL][NMeA]T[Sar][hhPhe][NMeV]L[NMeL]AD-Piperidide; lactam N-11) | 45 | 30 |  |  |

— US9409952B2, “Peptide-compound cyclization method” (Chugai Seiyaku Kabushiki Kaisha, priority 2011, dated 2016)
